# Measurements taken from ChEMBL document CHEMBL1201862, “PubChem BioAssay data set” (2004).
# Activity calls are given as the source filed them.
# Tests used:
# Format in all cases: functional
# [1] = molecular target: Glycogen synthase kinase-3 alpha (Homo sapiens, UniProt P49840); assay: human GSK3 alpha kinase inhibition, dose response, selectivity assay for GSK3beta inhibitor project, biochemical, microfluidics, dry powder samples, set 2 (AID 623978)
# [2] = molecular target: Glycogen synthase kinase-3 beta (Homo sapiens, UniProt P49841); assay: GSK3beta kinase inhibitors, dose response, biochemical, microfluidics, dry powder samples, set 2 (AID 623989)
# [3] = HEK293T cytotoxicity, dose response, cytotoxicity control for miR-122 modulator project, cell-based, inhibitor set, cherry-pick, set 2 (AID 720697)
# [4] = Vero cell cytotoxicity, dose response, cytotoxicity control for M. tuberculosis inhibitor project, purified and synthesized compounds, set 6 (AID 588445); settings: Mycobacterium tuberculosis
# [5] = THP-1 cell cytotoxicity, cytotoxicity control, set 5 (AID 588443)
# [6] = HepG2 cell cytotoxicity, cytotoxicity control, set 5 (AID 588441); settings: Mycobacterium tuberculosis
# [7] = A High Throughput Confirmatory Assay used to Identify Novel Compounds that Inhibit Mycobacterium Tuberculosis in the absence of Glycerol using Purified and Synthesized Compounds (3).
# [8] = molecular target: Cell division cycle 7-related protein kinase (Homo sapiens, UniProt O00311);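 also: value obtained from a kinome-wide kinase panel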
# Wee1-like protein kinase = Wee1-like protein kinase (Homo sapiens, UniProt P30291); assay: Navigating the Kinome. Panel member name: WEE1
# [9] = molecular target: Cyclin-dependent kinase 19 (Homo sapiens, UniProt Q9BWU1); assay: Navigating the Kinome. Panel member name: CDC2L6
# SRSF protein kinase 1 = SRSF protein kinase 1 (Homo sapiens, UniProt Q96SB4);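 also: measured as one member of a kinome-wide kinase profiling panel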
# [10] = molecular target: Serine/threonine-protein kinase pim-1 (Homo sapiens, UniProt P11309)
# [11] = molecular target: MAP kinase-activated protein kinase 5 (Homo sapiens, UniProt Q8IW41);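 also: measured as one member of a kinome panel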
# [12] = molecular target: Tyrosine-protein kinase receptor UFO (Homo sapiens, UniProt P30530)
# [13] = molecular target: Protein-tyrosine kinase 2-beta (Homo sapiens, UniProt Q14289)
# [14] = molecular target: Dual specificity protein kinase CLK4 (Homo sapiens, UniProt Q9HAZ1)
# [15] = molecular target: Vascular endothelial growth factor receptor 2 (Homo sapiens, UniProt P35968)
# Aurora kinase B = Aurora kinase B (Homo sapiens, UniProt Q96GD4)
# Aurora kinase A = Aurora kinase A (Homo sapiens, UniProt O14965);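 also: value from the Navigating the Kinome kinase panel profiling, panel entry STK6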
# [16] = molecular target: DNA dC->dU-editing enzyme APOBEC-3A (Homo sapiens, UniProt P31941); assay: SAR analysis of small molecule inhibitors of APOBEC3A DNA Deaminase via a fluorescence-based single-stranded DNA deaminase assay - Set 2.; settings: read-out: IC50_Mean
# [17] = molecular target: DNA dC->dU-editing enzyme APOBEC-3G (Homo sapiens, UniProt Q9HC16); assay: SAR analysis of small molecule inhibitors of APOBEC3G DNA Deaminase via a fluorescence-based single-stranded DNA deaminase assay - Set 2.; settings: read-out: IC50_Mean
# [18] = molecular target: Sphingosine 1-phosphate receptor 2 (Homo sapiens, UniProt O95136); assay: Late-stage fluorescence-based dose-response cell-based counterscreen assay to identify agonists of the Sphingosine 1-Phosphate Receptor 3 (S1P3): Sphingosine 1-Phosphate Receptor 2 (S1P2) agonist assay.
# [19] = molecular target: T1, Sphingosine 1-phosphate receptor 4 (Homo sapiens, UniProt O95977); assay: Late-stage fluorescence-based dose-response cell-based counterscreen assay to identify agonists of the Sphingosine 1-Phosphate Receptor 3 (S1P3): Sphingosine 1-Phosphate Receptor 4 (S1P4) agonist assay.
# T1 sequence (O95977 whole entry): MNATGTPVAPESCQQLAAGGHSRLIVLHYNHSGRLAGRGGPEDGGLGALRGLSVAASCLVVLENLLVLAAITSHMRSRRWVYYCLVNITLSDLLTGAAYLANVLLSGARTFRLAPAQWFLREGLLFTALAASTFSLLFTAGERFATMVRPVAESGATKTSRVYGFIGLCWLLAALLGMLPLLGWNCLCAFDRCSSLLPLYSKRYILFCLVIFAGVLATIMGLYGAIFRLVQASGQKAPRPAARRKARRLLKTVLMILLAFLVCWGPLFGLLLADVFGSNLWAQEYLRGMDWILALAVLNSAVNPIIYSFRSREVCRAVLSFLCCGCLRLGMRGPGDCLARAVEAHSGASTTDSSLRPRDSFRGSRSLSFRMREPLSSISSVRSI
# [20] = molecular target: Serine/threonine-protein kinase pim-3 (Homo sapiens, UniProt Q86V86);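 also: value obtained as one member of a broad kinase panel profiling effort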
# [21] = molecular target: Melanin-concentrating hormone receptor 1 (Homo sapiens, UniProt Q99705); assay: Late-stage fluorescence-based counterscreen for antagonists of the G-protein coupled receptor 7 (GPR7): cell-based dose response assay to identify antagonists of the melanin-concentrating hormone receptor 1 (MCHR1) Set 6.
# [22] = molecular target: T2, Neuropeptides B/W receptor type 1 (Homo sapiens, UniProt P48145); assay: GPR7 antagonist potency, late-stage follow-up, cell-based, fluorescence, dose response, set 6 (AID 588583)
# T2 sequence (P48145 whole entry): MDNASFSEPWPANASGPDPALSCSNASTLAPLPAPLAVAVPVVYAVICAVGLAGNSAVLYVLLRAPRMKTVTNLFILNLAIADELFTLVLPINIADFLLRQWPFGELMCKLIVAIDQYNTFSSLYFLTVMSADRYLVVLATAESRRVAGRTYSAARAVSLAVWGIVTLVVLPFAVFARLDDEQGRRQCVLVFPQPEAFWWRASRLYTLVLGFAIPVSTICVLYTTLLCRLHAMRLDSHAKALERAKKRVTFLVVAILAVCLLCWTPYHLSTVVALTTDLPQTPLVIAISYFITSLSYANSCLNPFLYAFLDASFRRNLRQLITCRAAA
# [23] = molecular target: Casein kinase I isoform alpha (Homo sapiens, UniProt P48729)
# [24] = molecular target: Dual specificity protein kinase CLK2 (Homo sapiens, UniProt P49760)
# [25] = molecular target: G protein-coupled receptor kinase 5 (Homo sapiens, UniProt P34947); assay: Navigating the Kinome. Panel member name: GPRK5
# [26] = molecular target: 5'-AMP-activated protein kinase catalytic subunit alpha-1 (Homo sapiens, UniProt Q13131)
# [27] = molecular target: Proto-oncogene tyrosine-protein kinase receptor Ret (Homo sapiens, UniProt P07949);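 also: measured within a kinome-wide profiling panel, RET as the panel member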
# [28] = molecular target: Inhibitor of nuclear factor kappa-B kinase subunit epsilon (Homo sapiens, UniProt Q14164); assay: Navigating the Kinome. Panel member name: IKBKE
# [29] = molecular target: MAP/microtubule affinity-regulating kinase 3 (Homo sapiens, UniProt P27448);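 also: MARK3 affinity measured as one member of a kinome panel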
# [30] = molecular target: Dual specificity tyrosine-phosphorylation-regulated kinase 1B (Homo sapiens, UniProt Q9Y463); assay: Navigating the Kinome. Panel member name: DYRK1B
# [31] = molecular target: Cyclin-dependent kinase 8 (Homo sapiens, UniProt P49336); assay: Navigating the Kinome. Panel member name: CDK8
# [32] = molecular target: Leucine-rich repeat serine/threonine-protein kinase 2 (Homo sapiens, UniProt Q5S007);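 also: value from a broad kinome-wide panel profiling study in which LRRK2 was one of the kinases tested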
# [33] = molecular target: Vascular endothelial growth factor receptor 1 (Homo sapiens, UniProt P17948);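 also: measured within a kinome-wide profiling panel, FLT1 as the panel member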
# [34] = molecular target: Tyrosine-protein kinase receptor TYRO3 (Homo sapiens, UniProt Q06418);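 also: TYRO3 value obtained as one member of a kinome-wide profiling panel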
# [35] = molecular target: Fibroblast growth factor receptor 1 (Homo sapiens, UniProt P11362)
# [36] = molecular target: Ribosomal protein S6 kinase alpha-3 (Homo sapiens, UniProt P51812);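 also: measured within a kinome-wide profiling panel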
# [37] = molecular target: Leukocyte tyrosine kinase receptor (Homo sapiens, UniProt P29376); assay: Navigating the Kinome. Panel member name: LTK
# [38] = molecular target: Serine/threonine-protein kinase TAO1 (Homo sapiens, UniProt Q7L7X3)
# [39] = molecular target: Mitogen-activated protein kinase kinase kinase kinase 4 (Homo sapiens, UniProt O95819)
# [40] = molecular target: Dual specificity tyrosine-phosphorylation-regulated kinase 1A (Homo sapiens, UniProt Q13627);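 also: measured against DYRK1A as one member of a broad kinome profiling panel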
# [41] = molecular target: ALK tyrosine kinase receptor (Homo sapiens, UniProt Q9UM73);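 also: ALK tested as one member of a kinase panel screen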
# Activated CDC42 kinase 1 = Activated CDC42 kinase 1 (Homo sapiens, UniProt Q07912); assay: Navigating the Kinome. Panel member name: ACK1
# [42] = molecular target: Mast/stem cell growth factor receptor Kit (Homo sapiens, UniProt P10721);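 also: KIT entry within a kinase panel assay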
# [43] = molecular target: Rho-associated protein kinase 1 (Homo sapiens, UniProt Q13464);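 also: measured within a broad kinome-wide panel profiling many kinases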
# [44] = molecular target: Dual specificity mitogen-activated protein kinase kinase 1 (Homo sapiens, UniProt Q02750); assay: Navigating the Kinome. Panel member name: MAP2K1
# [45] = molecular target: Tyrosine-protein kinase JAK3 (Homo sapiens, UniProt P52333)
# [46] = molecular target: Mitogen-activated protein kinase 10 (Homo sapiens, UniProt P53779); assay: Navigating the Kinome. Panel member name: MAPK10
# Activin receptor type-1 = Activin receptor type-1 (Homo sapiens, UniProt Q04771); assay: Navigating the Kinome. Panel member name: ACVR1
# [47] = molecular target: Tyrosine-protein kinase JAK2 (Homo sapiens, UniProt O60674);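 also: JAK2 tested as one member of a kinase panel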
# [48] = molecular target: cAMP-dependent protein kinase catalytic subunit PRKX (Homo sapiens, UniProt P51817)
# [49] = molecular target: Macrophage-stimulating protein receptor (Homo sapiens, UniProt Q04912); assay: Navigating the Kinome. Panel member name: MST1R
# Chain of Serine/threonine-protein kinase pim-1 (P11309 whole entry): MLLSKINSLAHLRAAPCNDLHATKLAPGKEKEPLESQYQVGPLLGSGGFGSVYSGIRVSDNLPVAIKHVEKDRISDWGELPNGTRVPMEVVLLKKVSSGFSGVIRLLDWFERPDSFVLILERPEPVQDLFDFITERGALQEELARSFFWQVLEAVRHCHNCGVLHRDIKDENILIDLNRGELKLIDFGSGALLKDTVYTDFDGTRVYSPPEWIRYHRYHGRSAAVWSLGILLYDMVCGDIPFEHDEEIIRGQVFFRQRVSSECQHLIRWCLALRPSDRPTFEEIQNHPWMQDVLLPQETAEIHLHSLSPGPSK
# Chain of Vascular endothelial growth factor receptor 2 (P35968 whole entry): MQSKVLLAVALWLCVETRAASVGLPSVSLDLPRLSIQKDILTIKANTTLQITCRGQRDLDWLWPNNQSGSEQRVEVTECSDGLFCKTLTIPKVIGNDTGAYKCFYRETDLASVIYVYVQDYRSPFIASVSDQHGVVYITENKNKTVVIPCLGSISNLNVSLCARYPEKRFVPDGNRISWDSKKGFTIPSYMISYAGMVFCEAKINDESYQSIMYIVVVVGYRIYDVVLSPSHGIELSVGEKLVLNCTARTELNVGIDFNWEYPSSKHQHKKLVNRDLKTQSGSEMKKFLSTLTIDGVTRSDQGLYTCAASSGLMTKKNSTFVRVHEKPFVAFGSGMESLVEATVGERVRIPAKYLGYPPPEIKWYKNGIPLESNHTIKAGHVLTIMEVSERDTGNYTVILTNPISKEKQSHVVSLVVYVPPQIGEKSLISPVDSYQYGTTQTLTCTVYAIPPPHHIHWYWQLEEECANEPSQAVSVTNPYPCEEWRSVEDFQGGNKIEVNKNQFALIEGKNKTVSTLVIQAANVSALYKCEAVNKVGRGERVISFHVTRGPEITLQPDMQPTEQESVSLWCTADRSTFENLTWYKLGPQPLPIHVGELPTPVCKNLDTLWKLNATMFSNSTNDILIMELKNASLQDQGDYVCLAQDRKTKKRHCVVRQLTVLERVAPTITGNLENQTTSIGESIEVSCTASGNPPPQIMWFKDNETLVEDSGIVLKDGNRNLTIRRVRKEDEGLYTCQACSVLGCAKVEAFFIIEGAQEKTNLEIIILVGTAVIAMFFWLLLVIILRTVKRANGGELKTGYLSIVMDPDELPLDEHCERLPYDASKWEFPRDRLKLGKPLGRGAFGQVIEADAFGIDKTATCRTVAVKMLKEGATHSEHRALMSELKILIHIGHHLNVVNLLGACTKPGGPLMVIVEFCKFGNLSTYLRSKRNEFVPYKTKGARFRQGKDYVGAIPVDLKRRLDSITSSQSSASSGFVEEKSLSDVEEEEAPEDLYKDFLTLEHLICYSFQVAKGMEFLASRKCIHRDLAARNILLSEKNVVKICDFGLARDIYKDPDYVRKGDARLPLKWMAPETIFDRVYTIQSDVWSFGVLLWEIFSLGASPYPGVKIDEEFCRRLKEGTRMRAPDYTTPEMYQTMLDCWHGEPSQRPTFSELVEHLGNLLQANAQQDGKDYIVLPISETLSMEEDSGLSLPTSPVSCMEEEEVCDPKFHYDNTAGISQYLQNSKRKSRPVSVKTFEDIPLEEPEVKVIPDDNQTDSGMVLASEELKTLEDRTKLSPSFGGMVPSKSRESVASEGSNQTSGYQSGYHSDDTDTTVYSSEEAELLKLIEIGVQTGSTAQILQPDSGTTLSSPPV
# Chain of Cell division cycle 7-related protein kinase (O00311 whole entry): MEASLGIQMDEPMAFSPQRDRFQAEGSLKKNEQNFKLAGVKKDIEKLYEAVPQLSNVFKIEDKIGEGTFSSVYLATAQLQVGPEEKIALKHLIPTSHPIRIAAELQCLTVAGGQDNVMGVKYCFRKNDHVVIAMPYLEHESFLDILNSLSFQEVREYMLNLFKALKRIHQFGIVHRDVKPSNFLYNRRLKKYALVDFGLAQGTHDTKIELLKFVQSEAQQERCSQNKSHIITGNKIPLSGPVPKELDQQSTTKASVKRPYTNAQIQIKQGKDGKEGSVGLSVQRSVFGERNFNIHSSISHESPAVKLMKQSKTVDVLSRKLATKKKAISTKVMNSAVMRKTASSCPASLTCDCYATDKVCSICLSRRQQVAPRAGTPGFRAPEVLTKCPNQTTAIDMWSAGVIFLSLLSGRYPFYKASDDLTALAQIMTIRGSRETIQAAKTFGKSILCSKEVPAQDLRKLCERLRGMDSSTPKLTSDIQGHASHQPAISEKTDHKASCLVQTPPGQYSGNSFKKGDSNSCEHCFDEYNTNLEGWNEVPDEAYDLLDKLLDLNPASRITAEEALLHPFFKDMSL
# Chain of Aurora kinase B (Q96GD4 whole entry): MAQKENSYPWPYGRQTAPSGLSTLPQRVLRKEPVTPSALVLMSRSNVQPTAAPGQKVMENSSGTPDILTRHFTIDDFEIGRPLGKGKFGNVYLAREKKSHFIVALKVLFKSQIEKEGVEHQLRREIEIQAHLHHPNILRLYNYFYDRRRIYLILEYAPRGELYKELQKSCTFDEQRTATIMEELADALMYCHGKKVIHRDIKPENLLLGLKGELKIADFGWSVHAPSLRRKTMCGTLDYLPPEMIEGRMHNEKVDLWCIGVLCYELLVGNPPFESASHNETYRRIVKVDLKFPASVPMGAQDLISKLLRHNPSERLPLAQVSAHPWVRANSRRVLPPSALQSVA
# Chain of Dual specificity protein kinase CLK4 (Q9HAZ1 whole entry): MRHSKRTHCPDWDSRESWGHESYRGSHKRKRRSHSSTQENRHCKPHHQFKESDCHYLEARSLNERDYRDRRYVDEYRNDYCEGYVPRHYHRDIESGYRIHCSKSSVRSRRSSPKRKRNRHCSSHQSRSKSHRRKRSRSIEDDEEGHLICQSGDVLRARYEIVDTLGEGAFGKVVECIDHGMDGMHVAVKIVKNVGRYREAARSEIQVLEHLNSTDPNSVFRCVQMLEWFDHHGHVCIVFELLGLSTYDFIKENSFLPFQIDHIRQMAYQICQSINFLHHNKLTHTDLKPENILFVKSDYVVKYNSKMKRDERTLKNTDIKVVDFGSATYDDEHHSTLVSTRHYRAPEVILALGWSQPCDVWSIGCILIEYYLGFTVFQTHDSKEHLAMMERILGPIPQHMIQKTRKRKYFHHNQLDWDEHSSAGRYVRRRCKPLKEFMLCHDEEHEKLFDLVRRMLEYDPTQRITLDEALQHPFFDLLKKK
# Chain of Tyrosine-protein kinase receptor TYRO3 (Q06418 whole entry): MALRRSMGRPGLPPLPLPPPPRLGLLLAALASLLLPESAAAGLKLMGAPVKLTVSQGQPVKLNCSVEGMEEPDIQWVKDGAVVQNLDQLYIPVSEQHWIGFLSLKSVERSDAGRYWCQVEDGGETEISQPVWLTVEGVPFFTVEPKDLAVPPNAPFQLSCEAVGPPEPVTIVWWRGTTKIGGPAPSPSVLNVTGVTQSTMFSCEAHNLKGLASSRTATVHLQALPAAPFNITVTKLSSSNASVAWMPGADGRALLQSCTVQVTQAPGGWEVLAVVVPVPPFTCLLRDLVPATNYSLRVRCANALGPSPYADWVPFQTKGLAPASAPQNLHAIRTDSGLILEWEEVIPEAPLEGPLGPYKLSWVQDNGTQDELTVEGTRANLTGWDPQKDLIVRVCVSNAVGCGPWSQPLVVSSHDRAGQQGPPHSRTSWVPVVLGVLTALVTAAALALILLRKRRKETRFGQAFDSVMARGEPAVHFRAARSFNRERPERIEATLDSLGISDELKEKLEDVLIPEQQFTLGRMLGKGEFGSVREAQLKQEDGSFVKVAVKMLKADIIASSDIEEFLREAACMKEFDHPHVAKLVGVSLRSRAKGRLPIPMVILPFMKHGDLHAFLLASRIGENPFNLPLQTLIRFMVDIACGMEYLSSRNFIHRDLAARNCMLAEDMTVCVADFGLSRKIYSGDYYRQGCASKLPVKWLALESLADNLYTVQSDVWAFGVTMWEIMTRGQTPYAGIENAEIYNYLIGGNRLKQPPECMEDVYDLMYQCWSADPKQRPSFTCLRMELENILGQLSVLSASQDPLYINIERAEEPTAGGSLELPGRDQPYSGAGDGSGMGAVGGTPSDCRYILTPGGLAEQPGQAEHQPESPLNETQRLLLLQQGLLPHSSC
# Chain of Melanin-concentrating hormone receptor 1 (Q99705 whole entry): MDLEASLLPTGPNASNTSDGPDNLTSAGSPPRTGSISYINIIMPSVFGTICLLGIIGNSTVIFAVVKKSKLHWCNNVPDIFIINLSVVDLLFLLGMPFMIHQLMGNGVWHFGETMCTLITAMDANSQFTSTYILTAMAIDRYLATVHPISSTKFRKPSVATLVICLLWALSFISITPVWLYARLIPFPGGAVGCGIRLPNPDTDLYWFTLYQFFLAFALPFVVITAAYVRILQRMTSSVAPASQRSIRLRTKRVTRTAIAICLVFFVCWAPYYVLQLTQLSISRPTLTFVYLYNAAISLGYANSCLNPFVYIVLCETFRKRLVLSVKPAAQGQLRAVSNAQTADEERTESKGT
# Chain of Sphingosine 1-phosphate receptor 2 (O95136 whole entry): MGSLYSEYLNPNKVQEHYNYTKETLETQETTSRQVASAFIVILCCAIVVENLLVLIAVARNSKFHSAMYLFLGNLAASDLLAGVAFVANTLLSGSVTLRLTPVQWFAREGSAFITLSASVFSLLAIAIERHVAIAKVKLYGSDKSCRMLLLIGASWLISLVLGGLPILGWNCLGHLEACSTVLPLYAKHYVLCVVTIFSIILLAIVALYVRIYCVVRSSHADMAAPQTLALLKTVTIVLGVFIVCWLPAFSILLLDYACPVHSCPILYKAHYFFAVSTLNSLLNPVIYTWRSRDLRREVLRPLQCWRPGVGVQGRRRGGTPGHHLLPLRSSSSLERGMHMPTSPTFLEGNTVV
smiles,measurement,setting,value
Clc1ccc(CSc2nnc(-c3ccncc3)o2)c(Cl)c1,AC50,[1],24 µM (active)
same,AC50,[2],1.83 µM (active)
same,AC50,[3],8.31 µM (active)
Cc1cccc(N2CCN(C(=O)c3ccc(CNc4c(N5CCC(C)CC5)c(=O)c4=O)cc3)CC2)c1C,CC50,[4],> 30 µM (active)
same,CC50,[5],8.21 µM (active)
same,CC50,[6],> 15 µM (active)
same,IC50,[7],> 25 µM (active)
c1cc(NC2CCCCC2)nc(Nc2ccc3[nH]ncc3c2)n1,Ki,[8],0.2 µM (active)
same,Ki,Wee1-like protein kinase,> 3.16 µM (inactive)
Oc1cncc2nc(-c3ccncc3)ccc12,Ki,[8],0.501 µM (active)
same,Ki,[9],> 100 µM (inactive)
O=C1CC(c2ccc(Cl)cc2)Cc2[nH]c3cc(Cl)ccc3c(=O)c21 (stereo unspecified),Ki,SRSF protein kinase 1,6.31 µM (active)
same,Ki,[10],5.01 µM (active)
same,Ki,[11],1.26 µM (active)
same,Ki,[12],1.58 µM (active)
same,Ki,[13],1.58 µM (active)
same,Ki,[14],6.31 µM (active)
O=C(CCCCCCC(=NO)c1ncco1)Nc1cccc(-c2ccccc2)c1,Ki,[15],> 5.01 µM (inactive)
same,Ki,Aurora kinase B,0.0251 µM (active)
same,Ki,Aurora kinase A,> 2 µM (inactive)
CCCn1c(=O)c2ccccc2n2c(SC)nnc12,IC50,[16],> 99 µM (inactive)
same,IC50,[17],> 99 µM (inactive)
CC(C)Cc1cc(C(=O)N(C2CCCCC2)C2CCCCC2)no1,EC50,[18],> 50 µM (inactive)
same,EC50,[19],> 50 µM (inactive)
N=C(N)Cc1cccc(-c2nc3ccccc3[nH]2)c1,Ki,[10],5.01 µM (active)
same,Ki,Aurora kinase B,2.51 µM (active)
same,Ki,[20],3.98 µM (active)
N#CC(c1ccc2c(c1)OCO2)c1c(Cl)cnn(Cc2cccc3ccccc23)c1=O (stereo unspecified),IC50,[21],0.41 µM (active)
same,IC50,[22],0.41 µM (active)
O=C(Nc1cccc(C(F)(F)F)n1)Nc1ccnc2ccc(F)cc12,Ki,[23],> 3.98 µM (inactive)
same,Ki,[10],> 6.31 µM (inactive)
same,Ki,[24],3.16 µM (active)
same,Ki,[25],> 3.98 µM (inactive)
same,Ki,[26],> 3.16 µM (inactive)
same,Ki,[15],> 2.51 µM (inactive)
same,Ki,[27],> 3.16 µM (inactive)
same,Ki,[28],> 3.16 µM (inactive)
same,Ki,[29],> 5.01 µM (inactive)
same,Ki,[30],2 µM (active)
same,Ki,[31],0.0794 µM (active)
same,Ki,[32],> 2.51 µM (inactive)
same,Ki,[33],> 3.98 µM (inactive)
same,Ki,[34],> 3.16 µM (inactive)
same,Ki,[35],> 3.98 µM (inactive)
same,Ki,[36],> 3.98 µM (inactive)
same,Ki,[37],> 3.16 µM (inactive)
same,Ki,[38],> 2.51 µM (inactive)
same,Ki,[39],> 5.01 µM (inactive)
same,Ki,[40],> 2 µM (inactive)
same,Ki,[41],> 6.31 µM (inactive)
same,Ki,Activated CDC42 kinase 1,> 3.98 µM (inactive)
same,Ki,[42],> 6.31 µM (inactive)
same,Ki,[43],> 3.98 µM (inactive)
same,Ki,[44],> 3.16 µM (inactive)
same,Ki,[45],> 5.01 µM (inactive)
same,Ki,[46],> 3.16 µM (inactive)
same,Ki,Activin receptor type-1,1.58 µM (active)
same,Ki,[47],> 2.51 µM (inactive)
same,Ki,[48],> 3.16 µM (inactive)
same,Ki,[14],0.1 µM (active)
same,Ki,[49],> 3.98 µM (inactive)
